Patent publication US9138659B2, “Compositions, methods, and systems relating to controlled crystallization and/or nucleation of molecular species” (Massachusetts Institute of Technology, priority 2010, dated 2015)

Experiments:
[1] = Nucleation induction time of ASA / ACM with PEGDA or PEGDA-co-AM microgels in 38/62 ethanol/water; type: physicochemical; conditions: for Average nucleation induction time τ (stretched exponential fit): ASA S=2.1; for τ1 (two-exponential fit) / τ2 (two-exponential fit): ASA; for optimum mesh size for inducing ASA nucleation: PEGDA particles
Text: Nucleation kinetics of model compounds was investigated by measuring the nucleation induction time probability distribution. Nucleation induction time is generally time elapsed prior to the formation of a detectable amount of the new crystalline phase. It is a useful indicator of the surface nucleation activity because it can be dramatically shortened when the presence of an interface lowers the free energy barrier of nucleation. Due to the stochastic nature of nucleation events, a large number of experiments were performed to obtain the probability distribution of nucleation induction time. To obtain the average induction time τ, statistical analysis on the induction time data was conducted based on the understanding that nucleation follows a Poisson distribution. According to Poisson statistics, the probability for a nucleation event to occur beyond time t is P=exp(−t/τ), which implies that the fraction of vials without nucleation at time t exponentially decays as a function of time, where the scaling factor for time is the average induction time.
For determining the statistical analysis of aspirin nucleation induction time with PEGDA particles of various mesh sizes (particles denoted by Mn), 1.9 mL of 38 mg/ml ASA solution in 38/62 ethanol/water (v/v) with 15 μg/mL PEGDA particles was cooled at a rate of 5° C./min from 35° C. to 15° C. to achieve a supersaturation of 2.1. The solution was stirred at 700 rpm. The onset of nucleation was detected by an IR probe which measures the transmission signal through the solution. A total of 10 vials were cycled for 5-10 times to yield 50-100 nucleation induction time measurements for the statistical analysis.
The nucleation rate, J, is given by J=1/τV, where τ the average induction time (Table 1) and V the volume of solution. For this equation to be valid, the assumption is that the crystal growth rate is much faster than the nucleation rate, which is the case for ASA. […] Other crystallization conditions were kept the same.
[…] The solution was stirred at 700 rpm. The onset of nucleation was detected by an IR probe which measures the transmission signal through the solution. A total of 10 vials were cycled for 5-10 times to yield 50-100 nucleation induction time data for the statistical analysis.
Effect of polymer gels on nucleation induction time statistics: To evaluate the impact of polymer-solute interactions on nucleation kinetics, induction times of ASA and ACM were measured with microgels of a series average mesh sizes before and after chemical modification suspended in respective supersaturated solutions. […] For each system, a large number of experiments (50-100) were conducted to obtain the induction time probability distribution. The nucleation induction time generally follows the Poisson distribution. However, deviations can occur, as observed in this study, when there is more than one type of nucleation sites in a sample, giving rise to multiple Poisson processes with different characteristic time scales.
For samples with PEGMDA microgels, the nucleation induction time distributions reported in previous work can be faithfully described by stretched exponentials (Tables 5 and 6), P=exp[−(t/τ)^β], where P is the probability to observe no crystallization event within time t, τ the average induction time. The stretched exponential exponent β served as a measure for the spread of time scales characterizing the nucleation process, or the distribution of kinetic barriers arisen from the heterogeneity of the system. Such heterogeneity can be attributed to the heterogeneity of the polymer microstructure identified using SANS, which resulted from a distribution of nucleation sites arising from spatial variations in both the mesh size and chemical composition of the hydrogel at nanometer length scales. Note that β varies with the average mesh size of the microgel. […]

[2] = Nucleation induction time of aspirin on nanopatterned AA-co-DVB polymer films from butyl acetate; type: physicochemical; conditions: for Nucleation induction time τ: aspirin, butyl acetate
Text: The effect of nanopatterned polymer films on the kinetics of nucleation from solution was quantified by measuring the nucleation induction time of aspirin, a representative small organic molecule. The polymer film was made from acrylic acid crosslinked with divinylbenzene (AA-co-DVB), with which aspirin could interact via hydrogen bonding. Polymer crosslinking was designed to avoid solvent uptake and to maintain the surface morphology when in contact with the solution. Due to the stochastic nature of nucleation events, 20 to 50 samples were tested simultaneously to obtain the probability distribution for the nucleation induction time. The average induction time, τ, was determined from a statistical analysis on the induction time data assuming that nucleation follows a Poisson distribution, P(t)=exp(−t/τ). The nucleation rate, J, was calculated from τ via J=1/τV, where V is the volume of solution, with the assumption that the time scale of nucleation is much longer than that of crystal growth, valid for this system.
In FIG. 14: Effect of the nanopore shape in AA-co-DVB polymer films on the nucleation kinetics of aspirin: flat vs. spherical pores (left); spherical pores vs. hexagonal pores and square pores of the same size (right). J is the nucleation rate, in number of nuclei per ml of solution per hour, calculated from the average nucleation induction time τ by J=1/τV, where V is the volume of solution. The standard errors of J were calculated from the regression on the induction time probability distribution following the Poisson distribution.
Nucleation Induction Time Measurement: Once synthesized, the polymer film with its substrate was inserted vertically into a 1 ml glass shell vial containing 200 μl 47 mg/ml aspirin solution in butyl acetate. For each polymer sample, 20-50 vials were assembled and immersed in a circulator stabilized at 50±0.1° C. to dissolve any pre-existing crystals, and then the solution was quench cooled to 5±0.1° C. by immersing into a second circulator. The number of vials in which crystallization occurred was recorded as a function of time. All the operations involving exposing polymer films, aspirin solutions and shell vials to the atmosphere were conducted inside a Bio Safety Cabinet to reduce impurity contamination to the lowest level. Efforts were made to clean all components before usage and aspirin solutions were filtered with an Acrodisc 0.2 μm PTFE syringe filter.

[3] = PEGDA-co-AM microgels M 130 g/mol
[4] = PEGDA-co-AM microgels M 200 g/mol
[5] = PEGDA-co-AM microgels M 400 g/mol
[6] = PEGDA-co-AM microgels M 575 g/mol
[7] = PEGDA-co-AM microgels M 700 g/mol

SMILES: CC(=O)Oc1ccccc1C(=O)O [aspirin]
- average nucleation induction time τ ([1]; ASA S = 2.1, Bulk (no particles), 38/62 ethanol/water): ∞
- average nucleation induction time τ ([1]; ASA S = 2.1, PEGDA microparticles Mn 130 g/mol, 38/62 ethanol/water): ∞
- average nucleation induction time τ ([1]; ASA S = 2.1, PEGDA microparticles Mn 200 g/mol, 38/62 ethanol/water): 910 ± 40 min
- average nucleation induction time τ ([1]; ASA S = 2.1, PEGDA microparticles Mn 400 g/mol, 38/62 ethanol/water): 60 min
- average nucleation induction time τ ([1]; ASA S = 2.1, PEGDA microparticles Mn 400 g/mol, 38/62 ethanol/water, listed as ASA): 63 ± 3 min
- average nucleation induction time τ ([1]; ASA S = 2.1, PEGDA microparticles Mn 575 g/mol, 38/62 ethanol/water): 1900 ± 100 min
- average nucleation induction time τ ([1]; ASA S = 2.1, PEGDA microparticles Mn 700 g/mol, 38/62 ethanol/water): 6600 ± 1100 min
- average nucleation induction time τ ([1]; ASA S = 3.3, Bulk (no particles), 38/62 ethanol/water): 2500 ± 600 min
- average nucleation induction time τ ([1]; ASA S = 3.3, PEGDA microparticles Mn 130 g/mol): 330 ± 60 min
- average nucleation induction time τ ([1]; ASA S = 3.3, PEGDA microparticles Mn 200 g/mol): 52 ± 3 min
- average nucleation induction time τ ([1]; ASA S = 3.3, PEGDA microparticles Mn 400 g/mol): 123 ± 7 min
- average nucleation induction time τ ([1]; ASA S = 3.3, PEGDA microparticles Mn 700 g/mol): 240 ± 20 min
- Average nucleation induction time τ (stretched exponential fit) ([1]; Bulk / PEGDA microgels M 130 g/mol): Not detectable
- Average nucleation induction time τ (stretched exponential fit) ([1]; PEGDA microgels M 200 g/mol): 1052 min
- Average nucleation induction time τ (stretched exponential fit) ([1]; PEGDA microgels M 400 g/mol): 66.7 min
- Average nucleation induction time τ (stretched exponential fit) ([1]; PEGDA microgels M 575 g/mol): 3500 min
- Average nucleation induction time τ (stretched exponential fit) ([1]; PEGDA microgels M 700 g/mol): 210000 min
- τ1 (two-exponential fit) [1, 3]: 170 min
- τ2 (two-exponential fit) [1, 3]: 4900 min
- τ1 (two-exponential fit) [1, 4]: 21 min
- τ2 (two-exponential fit) [1, 4]: 99 min
- τ1 (two-exponential fit) [1, 5]: 39 min
- τ2 (two-exponential fit) [1, 5]: 400 min
- τ1 (two-exponential fit) [1, 6]: 51 min
- τ2 (two-exponential fit) [1, 6]: 470 min
- τ1 (two-exponential fit) [1, 7]: 33 min
- τ2 (two-exponential fit) [1, 7]: 720 min
- optimum mesh size for inducing ASA nucleation ([1]; 8° C, higher supersaturation (3.4)): 10 Å
- optimum mesh size for inducing ASA nucleation ([1]; 15° C, supersaturation 2.1): approximately 15 Å
- promotion of nucleation kinetics when AM co-monomer was introduced into the PEGDA matrix ([1]; PEGDA-co-AM vs PEGDA microgels): up to four orders of magnitude
- best enhancement in nucleation kinetics by addition of PEGDA particles ([1]; vs bulk, Table 2): many orders of magnitudes
- enhancement of aspirin nucleation rate relative to spherical pores ([2]; AA-co-DVB film with hexagonal pores): more than an order of magnitude
- enhancement of aspirin nucleation rate relative to spherical pores ([2]; AA-co-DVB film with square pores): three-fold
- Nucleation induction time τ ([2]; AA-co-DVB film with hexagonal nanopores, 15 nm): 26 ± 7 min
- Nucleation induction time τ ([2]; AA-co-DVB film with square nanopores, 125 nm): 138 ± 12 min
